Where two headings read alike, the source gives them in different places.
Legend:
[1] = target: T1, ABL1(E255K)-phosphorylated (Homo sapiens, UniProt P00519, E255K); test: KINOMEscan ScanTK; format: binding; conditions: for difference in %Control from reference Ib at 1 µM: read-out: % difference (compound - Ib %Control)
T1 construct: purchased Eurofins DiscoverX KINOMEscan (scanTK)

ABL2 = target: T2, ABL2 (Homo sapiens, UniProt P42684); test: KINOMEscan ScanTK; format: binding
T2 construct: purchased Eurofins DiscoverX KINOMEscan (scanTK)
T2 sequence (P42684 whole entry): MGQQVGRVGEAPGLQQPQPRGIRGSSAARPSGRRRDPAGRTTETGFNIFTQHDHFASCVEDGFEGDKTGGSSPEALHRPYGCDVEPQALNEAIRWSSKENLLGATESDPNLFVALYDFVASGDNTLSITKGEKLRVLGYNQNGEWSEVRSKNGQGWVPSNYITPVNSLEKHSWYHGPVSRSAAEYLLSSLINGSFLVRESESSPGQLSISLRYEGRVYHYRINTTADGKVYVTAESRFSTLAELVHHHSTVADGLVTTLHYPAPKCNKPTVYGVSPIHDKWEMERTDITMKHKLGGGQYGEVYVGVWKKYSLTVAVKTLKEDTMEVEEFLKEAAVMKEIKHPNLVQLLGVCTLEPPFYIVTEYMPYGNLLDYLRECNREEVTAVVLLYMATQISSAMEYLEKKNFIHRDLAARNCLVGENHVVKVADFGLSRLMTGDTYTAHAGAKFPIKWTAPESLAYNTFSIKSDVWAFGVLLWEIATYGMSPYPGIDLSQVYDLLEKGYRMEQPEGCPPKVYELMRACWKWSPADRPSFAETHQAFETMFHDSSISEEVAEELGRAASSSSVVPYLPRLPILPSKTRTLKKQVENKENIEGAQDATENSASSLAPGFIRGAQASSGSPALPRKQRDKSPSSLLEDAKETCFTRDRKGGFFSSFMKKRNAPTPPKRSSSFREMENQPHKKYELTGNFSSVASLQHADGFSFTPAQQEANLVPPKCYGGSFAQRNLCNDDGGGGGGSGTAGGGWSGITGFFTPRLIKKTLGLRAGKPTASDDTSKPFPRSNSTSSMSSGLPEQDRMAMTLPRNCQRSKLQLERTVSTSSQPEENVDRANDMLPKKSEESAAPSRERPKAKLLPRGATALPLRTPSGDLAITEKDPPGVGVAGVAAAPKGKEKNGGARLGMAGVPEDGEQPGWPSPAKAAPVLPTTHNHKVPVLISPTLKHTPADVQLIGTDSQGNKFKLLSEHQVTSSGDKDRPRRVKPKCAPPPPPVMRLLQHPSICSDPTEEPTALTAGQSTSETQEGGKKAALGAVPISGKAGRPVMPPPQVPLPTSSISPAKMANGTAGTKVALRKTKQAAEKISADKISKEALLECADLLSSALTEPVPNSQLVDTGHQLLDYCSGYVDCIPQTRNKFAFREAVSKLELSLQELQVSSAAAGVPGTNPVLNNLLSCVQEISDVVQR

ERBB4 = target: T3, ERBB4 (Homo sapiens, UniProt Q15303); test: KINOMEscan ScanTK; format: binding
T3 construct: purchased Eurofins DiscoverX KINOMEscan (scanTK)

BTK Y223 phosphorylation = test: Immunoblotting, anti-IgM-induced signaling in OCI-LY7 cells; conditions: 500 nM, 1 h
EGFR(G719C) = target: T4, EGFR(G719C) (Homo sapiens, UniProt P00533, G719C); test: KINOMEscan ScanTK; format: binding
T4 construct: purchased Eurofins DiscoverX KINOMEscan (scanTK)
T4 sequence (P00533 25-1210 G719C): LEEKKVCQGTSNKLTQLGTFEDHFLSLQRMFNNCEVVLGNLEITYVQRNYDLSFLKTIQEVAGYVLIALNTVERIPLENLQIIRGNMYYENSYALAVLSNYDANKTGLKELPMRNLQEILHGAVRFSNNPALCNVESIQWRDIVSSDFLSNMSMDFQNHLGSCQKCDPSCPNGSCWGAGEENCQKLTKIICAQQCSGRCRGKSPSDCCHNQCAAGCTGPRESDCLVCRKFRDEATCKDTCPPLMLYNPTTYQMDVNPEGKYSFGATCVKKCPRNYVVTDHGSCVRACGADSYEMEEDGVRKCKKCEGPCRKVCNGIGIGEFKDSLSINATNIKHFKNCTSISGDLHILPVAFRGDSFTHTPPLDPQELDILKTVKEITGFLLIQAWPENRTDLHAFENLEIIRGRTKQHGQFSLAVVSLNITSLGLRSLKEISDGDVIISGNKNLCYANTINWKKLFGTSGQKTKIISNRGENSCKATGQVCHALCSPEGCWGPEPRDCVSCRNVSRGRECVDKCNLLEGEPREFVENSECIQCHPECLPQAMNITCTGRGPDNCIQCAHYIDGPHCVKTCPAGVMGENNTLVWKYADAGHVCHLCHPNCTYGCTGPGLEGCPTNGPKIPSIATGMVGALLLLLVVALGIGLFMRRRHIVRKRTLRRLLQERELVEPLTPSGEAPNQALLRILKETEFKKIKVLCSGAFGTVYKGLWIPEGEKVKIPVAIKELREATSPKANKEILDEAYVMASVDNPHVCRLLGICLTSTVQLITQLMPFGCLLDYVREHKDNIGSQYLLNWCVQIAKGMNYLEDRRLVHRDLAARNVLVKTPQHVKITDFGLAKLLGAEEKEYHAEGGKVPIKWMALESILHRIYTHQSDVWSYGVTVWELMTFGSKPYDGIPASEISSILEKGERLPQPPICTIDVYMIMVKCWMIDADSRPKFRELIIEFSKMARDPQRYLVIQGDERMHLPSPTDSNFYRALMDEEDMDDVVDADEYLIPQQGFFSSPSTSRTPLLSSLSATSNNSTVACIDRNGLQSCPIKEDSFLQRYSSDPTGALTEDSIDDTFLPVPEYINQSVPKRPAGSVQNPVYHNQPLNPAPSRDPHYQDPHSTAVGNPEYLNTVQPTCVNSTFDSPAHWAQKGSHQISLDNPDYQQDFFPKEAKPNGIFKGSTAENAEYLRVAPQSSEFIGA

EGFR(L861Q) = target: T5, EGFR(L861Q) (Homo sapiens, UniProt P00533, L861Q); test: KINOMEscan ScanTK; format: binding
T5 construct: purchased Eurofins DiscoverX KINOMEscan (scanTK)

FLT3(D835Y) = target: T6, FLT3(D835Y) (Homo sapiens, UniProt P36888, D835Y); test: KINOMEscan ScanTK; format: binding
T6 construct: purchased Eurofins DiscoverX KINOMEscan (scanTK)
T6 sequence (P36888 27-993 D835Y): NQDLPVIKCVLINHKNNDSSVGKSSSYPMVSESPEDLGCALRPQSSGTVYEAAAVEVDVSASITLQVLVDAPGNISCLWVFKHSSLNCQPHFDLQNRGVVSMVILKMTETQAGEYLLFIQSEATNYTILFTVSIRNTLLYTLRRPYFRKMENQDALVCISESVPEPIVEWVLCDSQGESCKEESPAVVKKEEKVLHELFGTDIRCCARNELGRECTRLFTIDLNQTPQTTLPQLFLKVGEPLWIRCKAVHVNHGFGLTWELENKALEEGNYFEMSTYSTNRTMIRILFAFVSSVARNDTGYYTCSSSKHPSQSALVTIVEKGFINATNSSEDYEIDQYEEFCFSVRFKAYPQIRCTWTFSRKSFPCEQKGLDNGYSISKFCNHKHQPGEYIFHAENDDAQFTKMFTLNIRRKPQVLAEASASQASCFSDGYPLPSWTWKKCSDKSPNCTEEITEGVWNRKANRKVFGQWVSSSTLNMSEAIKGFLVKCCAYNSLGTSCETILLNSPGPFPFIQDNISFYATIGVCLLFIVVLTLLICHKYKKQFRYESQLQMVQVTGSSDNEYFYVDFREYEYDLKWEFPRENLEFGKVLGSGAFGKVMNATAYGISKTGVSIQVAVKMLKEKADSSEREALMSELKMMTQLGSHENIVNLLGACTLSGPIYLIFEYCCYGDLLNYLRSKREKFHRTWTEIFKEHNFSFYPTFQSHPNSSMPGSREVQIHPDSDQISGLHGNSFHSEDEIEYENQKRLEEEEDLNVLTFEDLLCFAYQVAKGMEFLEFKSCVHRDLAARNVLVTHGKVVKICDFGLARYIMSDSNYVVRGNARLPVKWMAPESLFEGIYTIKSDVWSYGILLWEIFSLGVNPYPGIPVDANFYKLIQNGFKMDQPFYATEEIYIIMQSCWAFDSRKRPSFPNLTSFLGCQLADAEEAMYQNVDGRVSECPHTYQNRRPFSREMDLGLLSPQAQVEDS

TIE2 = target: T7, TIE2 (Homo sapiens, UniProt Q02763); test: KINOMEscan ScanTK; format: binding
T7 construct: purchased Eurofins DiscoverX KINOMEscan (scanTK)
T7 sequence (Q02763 23-1124): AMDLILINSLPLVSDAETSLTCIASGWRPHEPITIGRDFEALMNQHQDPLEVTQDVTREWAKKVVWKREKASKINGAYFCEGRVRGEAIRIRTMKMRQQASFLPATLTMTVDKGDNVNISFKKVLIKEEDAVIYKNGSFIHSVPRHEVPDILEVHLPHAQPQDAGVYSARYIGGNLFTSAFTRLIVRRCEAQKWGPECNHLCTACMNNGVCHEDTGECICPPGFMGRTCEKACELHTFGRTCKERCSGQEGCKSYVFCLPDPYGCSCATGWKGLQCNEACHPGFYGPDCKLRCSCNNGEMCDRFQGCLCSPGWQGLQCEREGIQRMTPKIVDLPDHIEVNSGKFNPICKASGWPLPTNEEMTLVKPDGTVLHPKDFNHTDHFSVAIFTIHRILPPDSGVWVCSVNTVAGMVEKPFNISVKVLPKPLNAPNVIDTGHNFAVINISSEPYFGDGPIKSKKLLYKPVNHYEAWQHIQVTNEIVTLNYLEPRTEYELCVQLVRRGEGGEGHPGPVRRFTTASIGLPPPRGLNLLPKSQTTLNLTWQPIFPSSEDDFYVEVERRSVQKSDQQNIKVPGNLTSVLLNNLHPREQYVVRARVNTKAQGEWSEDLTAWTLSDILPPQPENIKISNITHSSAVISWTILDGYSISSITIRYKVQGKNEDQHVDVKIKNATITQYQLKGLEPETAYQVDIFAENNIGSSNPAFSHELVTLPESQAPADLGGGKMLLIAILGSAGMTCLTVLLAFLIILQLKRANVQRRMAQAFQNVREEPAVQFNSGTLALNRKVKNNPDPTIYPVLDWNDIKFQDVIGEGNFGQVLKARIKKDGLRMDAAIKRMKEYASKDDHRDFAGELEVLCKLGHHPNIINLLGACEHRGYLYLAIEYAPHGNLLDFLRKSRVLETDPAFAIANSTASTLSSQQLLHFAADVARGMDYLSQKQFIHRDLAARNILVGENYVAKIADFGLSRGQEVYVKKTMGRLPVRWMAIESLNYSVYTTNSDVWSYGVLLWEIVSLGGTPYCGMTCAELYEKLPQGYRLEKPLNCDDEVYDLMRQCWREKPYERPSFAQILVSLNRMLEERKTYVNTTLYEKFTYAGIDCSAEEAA

ZAP70 = target: T8, ZAP70 (Homo sapiens, UniProt P43403); test: KINOMEscan ScanTK; format: binding
T8 construct: purchased Eurofins DiscoverX KINOMEscan (scanTK)
T8 sequence (P43403 1-619): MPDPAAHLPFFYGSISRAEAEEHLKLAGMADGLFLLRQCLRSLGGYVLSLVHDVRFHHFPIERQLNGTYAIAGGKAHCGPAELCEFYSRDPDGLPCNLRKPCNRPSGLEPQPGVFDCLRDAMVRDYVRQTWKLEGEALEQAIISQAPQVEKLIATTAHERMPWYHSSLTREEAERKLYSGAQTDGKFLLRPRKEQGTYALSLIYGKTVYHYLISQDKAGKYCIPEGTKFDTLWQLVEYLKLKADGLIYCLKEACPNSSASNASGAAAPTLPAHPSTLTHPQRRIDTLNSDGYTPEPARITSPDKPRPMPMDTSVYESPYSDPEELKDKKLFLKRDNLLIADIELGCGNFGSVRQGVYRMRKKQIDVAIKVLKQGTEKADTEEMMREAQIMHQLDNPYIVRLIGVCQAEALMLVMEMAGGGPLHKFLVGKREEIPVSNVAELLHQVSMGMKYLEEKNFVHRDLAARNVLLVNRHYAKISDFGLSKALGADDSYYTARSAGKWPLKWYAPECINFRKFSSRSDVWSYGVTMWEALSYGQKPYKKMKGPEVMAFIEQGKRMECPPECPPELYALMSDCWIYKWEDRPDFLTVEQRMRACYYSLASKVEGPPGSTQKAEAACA

T1 sequence (P00519 whole entry E255K): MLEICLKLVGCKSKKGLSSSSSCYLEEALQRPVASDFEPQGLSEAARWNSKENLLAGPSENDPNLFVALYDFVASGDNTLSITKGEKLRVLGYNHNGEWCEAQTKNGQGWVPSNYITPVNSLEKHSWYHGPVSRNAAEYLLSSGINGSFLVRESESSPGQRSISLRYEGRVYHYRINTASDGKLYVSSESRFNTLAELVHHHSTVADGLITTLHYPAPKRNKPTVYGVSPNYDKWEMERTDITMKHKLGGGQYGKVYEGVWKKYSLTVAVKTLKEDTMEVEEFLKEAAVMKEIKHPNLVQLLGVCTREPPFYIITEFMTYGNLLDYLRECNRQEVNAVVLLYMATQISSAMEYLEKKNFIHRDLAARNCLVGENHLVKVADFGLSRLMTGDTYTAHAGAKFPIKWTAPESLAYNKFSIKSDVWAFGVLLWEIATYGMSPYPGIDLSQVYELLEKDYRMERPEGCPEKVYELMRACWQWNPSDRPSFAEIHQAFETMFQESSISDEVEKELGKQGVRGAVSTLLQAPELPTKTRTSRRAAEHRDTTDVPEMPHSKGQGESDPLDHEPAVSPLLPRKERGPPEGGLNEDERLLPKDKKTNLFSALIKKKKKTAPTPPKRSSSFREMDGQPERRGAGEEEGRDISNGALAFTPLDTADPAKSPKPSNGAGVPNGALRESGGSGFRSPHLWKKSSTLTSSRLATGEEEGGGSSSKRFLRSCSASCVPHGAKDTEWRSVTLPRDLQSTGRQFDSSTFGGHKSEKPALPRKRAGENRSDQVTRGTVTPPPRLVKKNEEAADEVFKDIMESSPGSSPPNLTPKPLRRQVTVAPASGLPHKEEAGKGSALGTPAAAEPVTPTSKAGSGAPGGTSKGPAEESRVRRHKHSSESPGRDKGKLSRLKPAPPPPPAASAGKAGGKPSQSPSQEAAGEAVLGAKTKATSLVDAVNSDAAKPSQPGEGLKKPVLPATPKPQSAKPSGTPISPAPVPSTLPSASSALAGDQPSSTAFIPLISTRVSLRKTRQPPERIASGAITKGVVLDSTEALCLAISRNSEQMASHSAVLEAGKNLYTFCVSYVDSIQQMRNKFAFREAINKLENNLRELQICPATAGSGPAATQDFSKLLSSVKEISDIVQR

SMILES | remaining binding at 1 µM ([1]; @1000nM, read-out: %Control) | remaining binding at 1 µM ([1]; read-out: %Control @1000nM) | remaining binding at 1 µM (ABL2; @1000nM, read-out: %Control) | remaining binding at 1 µM (ABL2; read-out: %Control @1000nM) | remaining binding at 1 µM (ERBB4; @1000nM, read-out: %Control) | remaining binding at 1 µM (ERBB4; read-out: %Control @1000nM) | difference in %Control from reference Ib at 1 µM ([1]; @1000nM) | difference in %Control from reference compound Ib at 1 µM (ABL2; @1000nM) | difference in %Control vs compound Ib at 1 µM (EGFR(G719C); @1000nM) | remaining binding at 1 µM (EGFR(G719C); @1000nM, read-out: %Control) | remaining binding at 1 µM (EGFR(G719C); read-out: %Control @1000nM) | difference in % of control versus compound Ib at 1 µM (EGFR(L861Q); @1000nM) | remaining binding at 1 µM (EGFR(L861Q); @1000nM, read-out: %Control) | remaining binding at 1 µM (EGFR(L861Q); read-out: %Control @1000nM) | difference in %Control versus compound Ib at 1 µM (ERBB4; @1000nM) | difference in %Control versus compound Ib at 1 µM (FLT3(D835Y); @1000nM) | remaining binding at 1 µM (FLT3(D835Y); @1000nM, read-out: %Control) | remaining binding at 1 µM (FLT3(D835Y); read-out: %Control @1000nM) | remaining binding at 1 µM (TIE2; @1000nM, read-out: %Control) | remaining binding at 1 µM (TIE2; read-out: %Control @1000nM) | also measured
C=CC(=O)N1CCC[C@@H](n2nc(-c3ccc(Oc4ccccc4)cc3)c3c(N)ncnc32)C1 [Compound 1g, Ibrutinib, reference compound] | 64% | 64% | 41% | 41% | 0.05% | 0.05% |  |  |  |  |  |  |  |  |  |  |  |  |  |  | anti-IgM-induced BTK Y223 phosphorylation (BTK Y223 phosphorylation): strongly inhibited
Cc1cnc(S(C)(=O)=O)nc1N1CCCC(n2nc(-c3ccc(Oc4ccccc4)cc3)c3c(N)ncnc32)C1 (stereo not shown) [Compound 8a, 1-(1-(5-Methyl-2-(methylsulfonyl)pyrimidin-4-yl)piperidin-3-yl)-3-(4-phenoxyphenyl)-1H-pyrazolo[3,4-d]pyrimidin-4-amine] | 76% | 76% | 70% | 70% | 64% | 64% | 12% | 29% | 32.9% | 34% | 34% | 81.2% | 82% | 82% | 64% | -4% | 45% | 45% | 91% | 91% | remaining binding at 1 µM (ZAP70; @1000nM, read-out: %Control): 92%; remaining binding at 1 µM (ZAP70; read-out: %Control @1000nM): 92%
CNC(=O)c1cnc(S(C)(=O)=O)nc1N1CCCC(n2nc(-c3ccc(Oc4ccccc4)cc3)c3c(N)ncnc32)C1 (stereo not shown) [Compound 8d, 4-(3-(4-Amino-3-(4-phenoxyphenyl)-1H-pyrazolo[3,4-d]pyrimidin-1-yl)piperidin-1-yl)-N-methyl-2-(methylsulfonyl)pyrimidine-5-carboxamide] | 90% | 90% | 89% | 89% | 0.1% | 0.1% | 26% | 48% | -0.45% | 0.65% | 0.65% | 28.2% | 29% | 29% | 0.05% | 10% | 59% | 59% | 74% | 74% | remaining binding at 1 µM (ZAP70; @1000nM, read-out: %Control): 100%; remaining binding at 1 µM (ZAP70; read-out: %Control @1000nM): 100%

Further lines, with some results ahead:

remaining binding at 1 µM ([1]; @1000nM, read-out: %Control) | remaining binding at 1 µM ([1]; read-out: %Control @1000nM) | remaining binding at 1 µM (ABL2; @1000nM, read-out: %Control) | remaining binding at 1 µM (ABL2; read-out: %Control @1000nM) | remaining binding at 1 µM (ERBB4; @1000nM, read-out: %Control) | remaining binding at 1 µM (ERBB4; read-out: %Control @1000nM) | difference in %Control from reference Ib at 1 µM ([1]; @1000nM) | difference in %Control from reference compound Ib at 1 µM (ABL2; @1000nM) | difference in %Control vs compound Ib at 1 µM (EGFR(G719C); @1000nM) | remaining binding at 1 µM (EGFR(G719C); @1000nM, read-out: %Control) | remaining binding at 1 µM (EGFR(G719C); read-out: %Control @1000nM) | difference in % of control versus compound Ib at 1 µM (EGFR(L861Q); @1000nM) | remaining binding at 1 µM (EGFR(L861Q); @1000nM, read-out: %Control) | remaining binding at 1 µM (EGFR(L861Q); read-out: %Control @1000nM) | difference in %Control versus compound Ib at 1 µM (ERBB4; @1000nM) | difference in %Control versus compound Ib at 1 µM (FLT3(D835Y); @1000nM) | remaining binding at 1 µM (FLT3(D835Y); @1000nM, read-out: %Control) | remaining binding at 1 µM (FLT3(D835Y); read-out: %Control @1000nM) | remaining binding at 1 µM (TIE2; @1000nM, read-out: %Control) | remaining binding at 1 µM (TIE2; read-out: %Control @1000nM) | SMILES | also measured
81% | 81% | 79% | 79% | 0.55% | 0.55% | 17% | 38% | 1.7% | 2.8% | 2.8% | 56.2% | 57% | 57% | 0.5% | 18% | 67% | 67% | 72% | 72% | COC(=O)c1cnc(S(C)(=O)=O)nc1N1CCCC(n2nc(-c3ccc(Oc4ccccc4)cc3)c3c(N)ncnc32)C1 (stereo not shown) [Compound 8b, Methyl 4-(3-(4-Amino-3-(4-phenoxyphenyl)-1H-pyrazolo[3,4-d]pyrimidin-1-yl)piperidin-1-yl)-2-(methylsulfonyl)pyrimidine-5-carboxylate] | remaining binding at 1 µM (ZAP70; @1000nM, read-out: %Control): 94%; remaining binding at 1 µM (ZAP70; read-out: %Control @1000nM): 94%; anti-IgM-induced BTK Y223 phosphorylation (BTK Y223 phosphorylation): selectively reduced BTK Y^223 phosphorylation
81% | 81% | 98% | 98% | 5.2% | 5.2% | 17% | 57% | 6.4% | 7.5% | 7.5% | 81.2% | 82% | 82% | 5.15% | 50% | 99% | 99% | 90% | 90% | CCOC(=O)c1cnc(S(C)(=O)=O)nc1N1CCC[C@@H](n2nc(-c3ccc(Oc4ccccc4)cc3)c3c(N)ncnc32)C1 [Compound 8c, Ethyl (R)-4-(3-(4-Amino-3-(4-phenoxyphenyl)-1H-pyrazolo[3,4-d]pyrimidin-1-yl)piperidin-1-yl)-2-(methylsulfonyl)pyrimidine-5-carboxylate] | remaining binding at 1 µM (ZAP70; @1000nM, read-out: %Control): 100%; remaining binding at 1 µM (ZAP70; read-out: %Control @1000nM): 100%; anti-IgM-induced BTK Y223 phosphorylation (BTK Y223 phosphorylation): selectively reduced BTK Y^223 phosphorylation
